Source: patent US20260232642A1, “RNA-BINDING MOLECULES WITH A SMALL CORE SCAFFOLD (R-SCORE) AND USES THEREOF” (Max-Planck-Gesellschaft zur Förderung der Wissenschaften …, priority 2022, published 2026)
“Also recorded” adds a separate entry of the source. Where two headings read alike, the source gives them in different places.

Columns and labels:
JAR cells = assay: MTT assay, JAR; type: cell-based, human; details: 72 h, choriocarcinoma cell line, read-out: Cell lines IC50 [μM] JAR
Experimental: (§1) MAD-MB-231, MCF-7 and JAR cells were cultured in Dulbecco's modified Eagle's (DMEM) medium supplemented with 10% Fetal Bovine Serum (FBS), 100 u/mL penicillin-streptomycin. Jurkat, Molt-4 and Ramos cells were cultured in Roswell Park Memorial Institute (RPMI) 1640 medium with 10% Fetal Bovine Serum (FBS), 100 u/mL penicillin-streptomycin. All cell lines grown in an incubator with humidified 5% CO2 at 37° C.
(§2) Jurkat, Molt-4 and Ramos cells were collected and seeded into 96-well plates at a density of 8000-10000 per well and treated with compounds. MCF-7, MDA-MB-231 and JAR cells were collected and seeded into 96-well plates at a density of 2000-3000 per well and cultured overnight to adherent before treat with compounds. After exposed to increasing concentrations of compounds for 72 h, the cells in each well were mixed with 20 μL of 5 mg/ml MTT (3-(4,5-dimethylthiazol-2-yl)-2,5-diphenyltetrazolium bromide) for 2 h, then add 50 μL of 20% SDS/0.01 M HCl incubated overnight, and detected the absorbance at a wavelength of 570 nm.
(§3) Inhibition rate was calculated using the equation: […]
(§4) The IC50 values were calculated by using GraphPad Prism 9 software fitting to a dose-response inhibition equation.

MDA-MB-231 cells [1] = assay: MTT assay, MDA-MB-231; type: cell-based, human; details: breast cancer cell line, read-out: Cell lines IC50 [μM] MDA-MB-231
Experimental: as §1, §2, §3, §4

Molt-4 cells = assay: MTT assay, Molt-4; type: cell-based, human; details: acute leukemia cell line, read-out: Cell lines IC50 [μM] Molt-4
Experimental: as §1, §2, §3, §4

Jurkat cells = assay: MTT assay, Jurkat; type: cell-based, human; details: 72 h, acute leukemia cell line, read-out: Cell lines IC50 [μM] Jurkat
Experimental: as §1, §2, §3, §4

Ramos cells = assay: MTT assay, Ramos; type: cell-based, human; details: 72 h, Burkitt lymphoma cell line, read-out: Cell lines IC50 [μM] Ramos
Experimental: as §1, §2, §3, §4

[2] = test system: precursor microRNA-17 hairpin (pre-miR-17 hp); assay: Differential scanning fluorimetry (DSF), pre-miR-17 hairpin; type: binding; details: 60 uM compound, 1 μM hairpin in PBS, Tm of compound minus Tm of DMSO control
Experimental: (§5) To measure the binding between compounds and precursor microRNA-21 hairpin (pre-miR-21 hp) or precursor microRNA-17 hairpin (pre-miR-17 hp), DSF was performed as previously described with modification (ACS Chem. Biol. 2017, 12, 2, 435-443). Precursor microRNA hairpin was dissolved in PBS and annealed by briefly heating to 95° C. for 3 min and slowly cooling to rt. Assay was performed in duplicates using white qPCR 8-strips (VWR) with a total volume of 10 μL in PBS. The total reaction consisted of 1 μM precursor microRNA hairpin, 1% test compound (DMSO dilution) and 2×SYBR GreenII (Thermo Fisher Scientific). Compounds were incubated with precursor microRNA hairpin at for 10 min at rt, then SYBR GreenII was added to each well, mixed and incubated 10 min at rt. The strips were spined and loaded to the RT-PCR detection system (BIO-RAD CFX Connect), the fluorescence intensity was obtained every 1° C. for 30 s in the range of 20° C. to 80° C.
(§6) The melting temperature (Tm) was determined by the maximum of the negative of the first derivative of the fluorescence vs temperature melting curves. The ΔTm was calculated by the Tm value of compound subtract the Tm value of the DMSO control.

[3] = test system: precursor microRNA-21 hairpin (pre-miR-21 hp); assay: Differential scanning fluorimetry (DSF), pre-miR-21 hairpin; type: binding; details: 60 uM compound, 1 μM hairpin in PBS, Tm of compound minus Tm of DMSO control
Experimental: as §5, §6

MDA-MB-231 cells [4] = assay: Colony formation assay; type: cell-based, human; details: for antiproliferation activity against MDA-MB-231 cell line: 6 days, crystal violet, vs DMSO; for antiproliferation activity compared to other selected compounds: MDA-MB-231, ranking among A10, A11, B2, B5, B8, B9; for inhibition of MDA-MB-231 cell proliferation at 10 μM: concentration of 10 μM
Experimental: as §1
MDA-MB-231 cells were collected and seeded into 24-well plates with the density of 1000 cells per well and cultured overnight. The medium was exchanged and supplemented with different compounds and concentrations every three days. 6 days later, cells were washed with PBS and fixed by 4% paraformaldehyde solution. After 15 min fix, the paraformaldehyde solution was washed with PBS and was then stained with 0.1% (w/v) crystal violet. After 15 min, the cells were washed and photographed.

MCF-7 cells = assay: MTT assay, MCF-7; type: cell-based, human; details: breast cancer cell line, read-out: Cell lines IC50 [μM] MCF-7
Experimental: as §1, §2, §3, §4

Row | IC50 (MDA-MB-231 cells [1]; Homo sapiens, MDA-MB-231, 72 h) | IC50 (Molt-4 cells; Homo sapiens, MOLT-4, 72 h) | IC50 (Jurkat cells; Homo sapiens, Jurkat) | IC50 (Ramos cells; Homo sapiens, Ramos) | IC50 (MCF-7 cells; Homo sapiens, MCF7, 72 h) | IC50 (MDA-MB-231 cells [1]; 72 h) | IC50 (Molt-4 cells; 72 h) | IC50 (Jurkat cells) | IC50 (Ramos cells) | IC50 (MCF-7 cells; 72 h) | Structure (SMILES) | IC50 (JAR cells; Homo sapiens) | ΔTm (pre-miR-17 hp) @60 uM [° C.] [2] | ΔTm (pre-miR-21 hp) @60 uM [° C.] [3] | antiproliferation activity against MDA-MB-231 cell line (MDA-MB-231 cells [4]) | IC50 (JAR cells) | antiproliferation activity compared to other selected compounds (MDA-MB-231 cells [4]) | inhibition of MDA-MB-231 cell proliferation at 10 μM (MDA-MB-231 cells [4])
1 | > 20 µM | 1.6 µM | 7.51 µM | 8.87 µM | > 20 µM |  |  |  |  |  | C=CCN1C(C#N)C(c2ccc(-c3ccc(C(F)(F)F)cc3)cc2)C1Cn1cc(-c2ccccn2)nn1 (centres unmarked) [Compound A10, 1-allyl-4-((4-(pyridin-2-yl)-1H-1,2,3-triazol-1-yl)methyl)-3-(4′-(trifluoromethyl)-[1,1′-biphenyl]-4-yl) azetidine-2-carbonitrile] | > 20 µM | 0 °C | 0 °C | can inhibit MDA-MB-231 cells proliferation; also recorded: exhibited antiproliferation activity against MDA-MB-231 cell line in a dose-dependent manner |  |  | 
2 |  |  |  |  |  | 4.12 µM | 4.14 µM | 3.17 µM | 5.54 µM | 1.78 µM | CNc1nc(N2CC(c3ccc(-c4ccc5nc[nH]c5c4)cc3)C2C#N)nc2ccccc12 (centres unmarked) [Compound B9, 3-(4-(1H-benzo[d]imidazol-6-yl)phenyl)-1-(4-(methylamino)quinazolin-2-yl) azetidine-2-carbonitrile] |  | −1 °C | −1 °C | can inhibit MDA-MB-231 cells proliferation; also recorded: exhibited antiproliferation activity against MDA-MB-231 cell line in a dose-dependent manner | 1.82 µM |  | 
3 |  |  |  |  |  |  | 4.67 µM | 4.49 µM | 3.03 µM |  | CNc1nc(N2CC(c3ccc(-c4c(C)noc4C)cc3)C2C#N)nc2ccccc12 (centres unmarked) [Compound B2, 3-(4-(3,5-dimethylisoxazol-4-yl)phenyl)-1-(4-(methylamino)quinazolin-2-yl) azetidine-2-carbonitrile] |  |  |  | can inhibit MDA-MB-231 cells proliferation; also recorded: exhibited antiproliferation activity against MDA-MB-231 cell line in a dose-dependent manner |  | better antiproliferation ability; also recorded: most potent antiproliferation activity | fully inhibited
4 | 6.95 µM | 8.42 µM | 5.9 µM | 2.8 µM | 5.61 µM |  |  |  |  |  | CNc1nc(N2CC(c3ccc(-c4ccc(C(F)(F)F)cc4)cc3)C2C#N)nc2ccccc12 (centres unmarked) [Compound B5, 1-(4-(methylamino)quinazolin-2-yl)-3-(4′-(trifluoromethyl)-[1,1′-biphenyl]-4-yl) azetidine-2-carbonitrile] | 1.44 µM | 0 °C | 0 °C | can inhibit MDA-MB-231 cells proliferation; also recorded: exhibited antiproliferation activity against MDA-MB-231 cell line in a dose-dependent manner |  | most potent antiproliferation activity | fully inhibited
